Reference: article PMC4512239 (Clinical cancer research : an official journal of the …, 2015)
Entries after “also recorded” stand apart in the source; their conditions may differ.

Assay: phase I safety and tolerability
Assay type: in vivo, human

SMILES: CNC(=O)c1cccc(-c2ccc3c(N4CCOC[C@@H]4C)nc(N4CCOC[C@@H]4C)nc3n2)c1 [AZD2014]
- Fatigue, Any grade (Part A 70mg BD solution (N=5)): 3 (60.0) Number (%) of patients
- Fatigue, CTCAE grade 1-2 (Part A 70mg BD solution (N=5)): 2 (40.0) Number (%) of patients
- Hypokalemia, Any grade (Part A 70mg BD solution (N=5)): 1 (20.0) Number (%) of patients
- Hypokalemia, CTCAE grade 1-2 (Part A 70mg BD solution (N=5)): 1 (20.0) Number (%) of patients
- Hypokalemia, CTCAE grade >=3 (Part A 70mg BD solution (N=5)): 0 Number (%) of patients
- Lower respiratory tract infection, Any grade (Part A 70mg BD solution (N=5)): 1 (20.0) Number (%) of patients
- Lower respiratory tract infection, CTCAE grade 1-2 (Part A 70mg BD solution (N=5)): 1 (20.0) Number (%) of patients
- Lower respiratory tract infection, CTCAE grade >=3 (Part A 70mg BD solution (N=5)): 0 Number (%) of patients
- Mucositis, Any grade (Part A 70mg BD solution (N=5)): 5 (100.0) Number (%) of patients
- Mucositis, CTCAE grade 1-2 (Part A 70mg BD solution (N=5)): 3 (60.0) Number (%) of patients
- Mucositis, CTCAE grade >=3 (Part A 70mg BD solution (N=5)): 2 (40.0) Number (%) of patients
- Nausea, Any grade (Part A 70mg BD solution (N=5)): 3 (60.0) Number (%) of patients
- Nausea, CTCAE grade 1-2 (Part A 70mg BD solution (N=5)): 3 (60.0) Number (%) of patients
- Nausea, CTCAE grade >=3 (Part A 70mg BD solution (N=5)): 0 Number (%) of patients
- Pruritus, Any grade (Part A 70mg BD solution (N=5)): 0 Number (%) of patients
- Pruritus, CTCAE grade 1-2 (Part A 70mg BD solution (N=5)): 0 Number (%) of patients
- Pruritus, CTCAE grade >=3 (Part A 70mg BD solution (N=5)): 0 Number (%) of patients
- Rash, Any grade (Part A 70mg BD solution (N=5)): 1 (20.0) Number (%) of patients
- Rash, CTCAE grade 1-2 (Part A 70mg BD solution (N=5)): 0 Number (%) of patients
- Rash, CTCAE grade >=3 (Part A 70mg BD solution (N=5)): 1 (20.0) Number (%) of patients
- Vomiting, Any grade (Part A 70mg BD solution (N=5)): 0 Number (%) of patients
- Vomiting, CTCAE grade 1-2 (Part A 70mg BD solution (N=5)): 0 Number (%) of patients
- Vomiting, CTCAE grade >=3 (Part A 70mg BD solution (N=5)): 0 Number (%) of patients
- Anemia, Any grade (Part A 100mg BD solution (N=4)): 1 (25.0) Number (%) of patients
- Anemia, CTCAE grade 1-2 (Part A 100mg BD solution (N=4)): 0 Number (%) of patients
- Anemia, CTCAE grade >=3 (Part A 100mg BD solution (N=4)): 1 (25.0) Number (%) of patients
- Back pain, Any grade (Part A 100mg BD solution (N=4)): 2 (50.0) Number (%) of patients
- Back pain, CTCAE grade 1-2 (Part A 100mg BD solution (N=4)): 2 (50.0) Number (%) of patients
- Back pain, CTCAE grade >=3 (Part A 100mg BD solution (N=4)): 0 Number (%) of patients
- Constipation, Any grade (Part A 100mg BD solution (N=4)): 1 (25.0) Number (%) of patients
- Constipation, CTCAE grade 1-2 (Part A 100mg BD solution (N=4)): 1 (25.0) Number (%) of patients
- Constipation, CTCAE grade >=3 (Part A 100mg BD solution (N=4)): 0 Number (%) of patients
- Cough, Any grade (Part A 100mg BD solution (N=4)): 0 Number (%) of patients
- Cough, CTCAE grade 1-2 (Part A 100mg BD solution (N=4)): 0 Number (%) of patients
- Cough, CTCAE grade >=3 (Part A 100mg BD solution (N=4)): 0 Number (%) of patients
- Decreased appetite, Any grade (Part A 100mg BD solution (N=4)): 4 (100.0) Number (%) of patients
- Decreased appetite, CTCAE grade 1-2 (Part A 100mg BD solution (N=4)): 4 (100.0) Number (%) of patients
- Decreased appetite, CTCAE grade >=3 (Part A 100mg BD solution (N=4)): 0 Number (%) of patients
- Diarrhea, Any grade (Part A 100mg BD solution (N=4)): 1 (25.0) Number (%) of patients
- Diarrhea, CTCAE grade 1-2 (Part A 100mg BD solution (N=4)): 1 (25.0) Number (%) of patients
- Diarrhea, CTCAE grade >=3 (Part A 100mg BD solution (N=4)): 0 Number (%) of patients
- Dry mouth, Any grade (Part A 100mg BD solution (N=4)): 1 (25.0) Number (%) of patients
- Dry mouth, CTCAE grade 1-2 (Part A 100mg BD solution (N=4)): 1 (25.0) Number (%) of patients
- Dry mouth, CTCAE grade >=3 (Part A 100mg BD solution (N=4)): 0 Number (%) of patients
- Dyspnea, Any grade (Part A 100mg BD solution (N=4)): 2 (50.0) Number (%) of patients
- Dyspnea, CTCAE grade 1-2 (Part A 100mg BD solution (N=4)): 2 (50.0) Number (%) of patients
- Dyspnea, CTCAE grade >=3 (Part A 100mg BD solution (N=4)): 0 Number (%) of patients
- Fatigue, Any grade (Part A 100mg BD solution (N=4)): 4(100.0) Number (%) of patients
- Fatigue, CTCAE grade 1-2 (Part A 100mg BD solution (N=4)): 2 (50.0) Number (%) of patients
- Fatigue, CTCAE grade >=3 (Part A 100mg BD solution (N=4)): 2 (50.0) Number (%) of patients
- Hypokalemia, Any grade (Part A 100mg BD solution (N=4)): 0 Number (%) of patients
- Hypokalemia, CTCAE grade 1-2 (Part A 100mg BD solution (N=4)): 0 Number (%) of patients
- Hypokalemia, CTCAE grade >=3 (Part A 100mg BD solution (N=4)): 0 Number (%) of patients
- Lower respiratory tract infection, Any grade (Part A 100mg BD solution (N=4)): 0 Number (%) of patients
- Lower respiratory tract infection, CTCAE grade 1-2 (Part A 100mg BD solution (N=4)): 0 Number (%) of patients
- Lower respiratory tract infection, CTCAE grade >=3 (Part A 100mg BD solution (N=4)): 0 Number (%) of patients
- Mucositis, Any grade (Part A 100mg BD solution (N=4)): 3 (75.0) Number (%) of patients
- Mucositis, CTCAE grade 1-2 (Part A 100mg BD solution (N=4)): 3 (75.0) Number (%) of patients
- Mucositis, CTCAE grade >=3 (Part A 100mg BD solution (N=4)): 0 Number (%) of patients
- Nausea, Any grade (Part A 100mg BD solution (N=4)): 4 (100.0) Number (%) of patients
- Nausea, CTCAE grade 1-2 (Part A 100mg BD solution (N=4)): 4 (100.0) Number (%) of patients
- Nausea, CTCAE grade >=3 (Part A 100mg BD solution (N=4)): 0 Number (%) of patients
- Pruritus, Any grade (Part A 100mg BD solution (N=4)): 0 Number (%) of patients
- Pruritus, CTCAE grade 1-2 (Part A 100mg BD solution (N=4)): 0 Number (%) of patients
- Pruritus, CTCAE grade >=3 (Part A 100mg BD solution (N=4)): 0 Number (%) of patients
- Rash, Any grade (Part A 100mg BD solution (N=4)): 0 Number (%) of patients
- Rash, CTCAE grade 1-2 (Part A 100mg BD solution (N=4)): 0 Number (%) of patients
- Rash, CTCAE grade >=3 (Part A 100mg BD solution (N=4)): 0 Number (%) of patients
- Vomiting, Any grade (Part A 100mg BD solution (N=4)): 4 (100.0) Number (%) of patients
- Vomiting, CTCAE grade 1-2 (Part A 100mg BD solution (N=4)): 4 (100.0) Number (%) of patients
- Vomiting, CTCAE grade >=3 (Part A 100mg BD solution (N=4)): 0 Number (%) of patients
- grade 3 or 4 hyperglycemia (RP2D of 50 mg BD): no grade 3 or 4 hyperglycemia was seen
- fatigue, most common AEs (at the MTD (50 mg BD)): 78%
- fatigue, nausea and mucositis equal to or greater than grade 3, patients (at the MTD (50 mg BD)): 5%
- nature of the dose limiting toxicities (dose range 25-100 mg): fatigue and mucositis
- recommended phase II dose (RP2D) (oral, continuous twice daily dosing): 50 mg BD
- maximally tolerated dose (MTD) (oral, continuous twice daily dosing, solution): 50 mg BD
- pneumonitis (phase I study): no patients were diagnosed with pneumonitis; also recorded: no instances of pneumonitis
- Anemia, Any grade (total (N=56)): 9 (16.1) Number (%) of patients
- Anemia, CTCAE grade 1-2 (total (N=56)): 7 (12.5) Number (%) of patients
- Anemia, CTCAE grade >=3 (total (N=56)): 2 (3.6) Number (%) of patients
- Back pain, Any grade (total (N=56)): 9 (16.1) Number (%) of patients
- Back pain, CTCAE grade 1-2 (total (N=56)): 8 (14.3) Number (%) of patients
- Back pain, CTCAE grade >=3 (total (N=56)): 1 (1.8) Number (%) of patients
- Constipation, Any grade (total (N=56)): 16 (28.6) Number (%) of patients
- Constipation, CTCAE grade 1-2 (total (N=56)): 16 (28.6) Number (%) of patients
- Constipation, CTCAE grade >=3 (total (N=56)): 0 Number (%) of patients
- Cough, Any grade (total (N=56)): 12 (21.4) Number (%) of patients
- Cough, CTCAE grade 1-2 (total (N=56)): 12 (21.4) Number (%) of patients
- Cough, CTCAE grade >=3 (total (N=56)): 0 Number (%) of patients
- Decreased appetite, Any grade (total (N=56)): 26 (46.4) Number (%) of patients
- Decreased appetite, CTCAE grade 1-2 (total (N=56)): 26 (46.4) Number (%) of patients
- Decreased appetite, CTCAE grade >=3 (total (N=56)): 0 Number (%) of patients
- Diarrhea, Any grade (total (N=56)): 23 (41.1) Number (%) of patients
- Diarrhea, CTCAE grade 1-2 (total (N=56)): 23 (41.1) Number (%) of patients
- Diarrhea, CTCAE grade >=3 (total (N=56)): 0 Number (%) of patients
- Dry mouth, Any grade (total (N=56)): 10 (17.9) Number (%) of patients
- Dry mouth, CTCAE grade 1-2 (total (N=56)): 10 (17.9) Number (%) of patients
- Dry mouth, CTCAE grade >=3 (total (N=56)): 0 Number (%) of patients
- Dyspnea, Any grade (total (N=56)): 11 (19.6) Number (%) of patients
- Dyspnea, CTCAE grade 1-2 (total (N=56)): 9 (16.1) Number (%) of patients
- Dyspnea, CTCAE grade >=3 (total (N=56)): 2 (3.6) Number (%) of patients
- Fatigue, Any grade (total (N=56)): 42 (75.0) Number (%) of patients
- Fatigue, CTCAE grade 1-2 (total (N=56)): 36 (64.3) Number (%) of patients
- Fatigue, CTCAE grade >=3 (total (N=56)): 6 (10.7) Number (%) of patients
- Hypokalemia, Any grade (total (N=56)): 9 (16.1) Number (%) of patients
- Hypokalemia, CTCAE grade 1-2 (total (N=56)): 8 (14.3) Number (%) of patients
- Hypokalemia, CTCAE grade >=3 (total (N=56)): 1 (1.8) Number (%) of patients
- Lower respiratory tract infection, Any grade (total (N=56)): 9 (16.1) Number (%) of patients
- Lower respiratory tract infection, CTCAE grade 1-2 (total (N=56)): 7 (12.5) Number (%) of patients
- Lower respiratory tract infection, CTCAE grade >=3 (total (N=56)): 2 (3.6) Number (%) of patients
- Mucositis, Any grade (total (N=56)): 30 (53.6) Number (%) of patients
- Mucositis, CTCAE grade 1-2 (total (N=56)): 27 (48.2) Number (%) of patients
- Mucositis, CTCAE grade >=3 (total (N=56)): 3 (5.4) Number (%) of patients
- Nausea, Any grade (total (N=56)): 30 (53.6) Number (%) of patients
- Nausea, CTCAE grade 1-2 (total (N=56)): 28 (50.0) Number (%) of patients
- Nausea, CTCAE grade >=3 (total (N=56)): 2 (3.6) Number (%) of patients
- Pruritus, Any grade (total (N=56)): 13 (23.2) Number (%) of patients
- Pruritus, CTCAE grade 1-2 (total (N=56)): 13 (23.2) Number (%) of patients
- Pruritus, CTCAE grade >=3 (total (N=56)): 0 Number (%) of patients
- Rash, CTCAE grade 1-2 (total (N=56)): 16 (28.6) Number (%) of patients
- Rash, CTCAE grade >=3 (total (N=56)): 3 (5.4) Number (%) of patients
- Vomiting, Any grade (total (N=56)): 16 (28.6) Number (%) of patients
- Vomiting, CTCAE grade 1-2 (total (N=56)): 15 (26.8) Number (%) of patients
- Vomiting, CTCAE grade >=3 (total (N=56)): 1 (1.8) Number (%) of patients
